The source made the active and inactive calls. How the calls were made is not given here.
Test system: CCRIS mutagenicity, Ames/micronucleus/aberration tests
Experiment: CCRIS mutagenicity studies

## CN(CCCC(=O)c1cccnc1)N=O
Test System: AMES SALMONELLA TYPHIMURIUM, Strain/Indicator: TA100, Metabolic Activation: NONE, Method: PREINCUBATION
  mutagenic call: inactive; negative
Test System: AMES SALMONELLA TYPHIMURIUM, Strain/Indicator: TA100, Metabolic Activation: RABBIT, LIVER, S-9, Method: PREINCUBATION
  mutagenic call: active; positive
Test System: AMES SALMONELLA TYPHIMURIUM, Strain/Indicator: TA100, Metabolic Activation: RABBIT, LUNG, CLARA CELLS, Method: PREINCUBATION
  mutagenic call: inactive; negative
Test System: AMES SALMONELLA TYPHIMURIUM, Strain/Indicator: TA100, Metabolic Activation: RABBIT, LUNG, MACROPHAGES, Method: PREINCUBATION
  mutagenic call: inactive; negative
Test System: AMES SALMONELLA TYPHIMURIUM, Strain/Indicator: TA100, Metabolic Activation: RABBIT, LUNG, TYPE II CELLS, Method: PREINCUBATION
  mutagenic call: inactive; negative
Test System: AMES SALMONELLA TYPHIMURIUM, Strain/Indicator: TA100, Metabolic Activation: RAT LIVER S-9, AROCLOR 1254, Method: PREINCUBATION
  mutagenic call: inactive; negative
Test System: AMES SALMONELLA TYPHIMURIUM, Strain/Indicator: TA100, Metabolic Activation: RAT, LIVER, S-9, AROCLOR 1254, Method: STANDARD PLATE
  mutagenic call: active; positive
Test System: AMES SALMONELLA TYPHIMURIUM, Strain/Indicator: TA1530, Metabolic Activation: RABBIT, LIVER, S-9, Method: PREINCUBATION
  mutagenic call: active; positive
Test System: AMES SALMONELLA TYPHIMURIUM, Strain/Indicator: TA1530, Metabolic Activation: RABBIT, LUNG, CLARA CELLS, Method: PREINCUBATION
  mutagenic call: inactive; negative
Test System: AMES SALMONELLA TYPHIMURIUM, Strain/Indicator: TA1530, Metabolic Activation: RABBIT, LUNG, MACROPHAGES, Method: PREINCUBATION
  mutagenic call: inactive; negative
Test System: AMES SALMONELLA TYPHIMURIUM, Strain/Indicator: TA1530, Metabolic Activation: RABBIT, LUNG, TYPE II CELLS, Method: PREINCUBATION
  mutagenic call: inactive; negative
Test System: AMES SALMONELLA TYPHIMURIUM, Strain/Indicator: TA1535, Metabolic Activation: HAMSTER, LIVER, MICROSOMES, 3-METHYLCHOLANTHRENE, Method: PREINCUBATION
  mutagenic call: active; positive
Test System: AMES SALMONELLA TYPHIMURIUM, Strain/Indicator: TA1535, Metabolic Activation: HAMSTER, LIVER, MICROSOMES, AROCLOR 1254, Method: PREINCUBATION
  mutagenic call: active; positive
Test System: AMES SALMONELLA TYPHIMURIUM, Strain/Indicator: TA1535, Metabolic Activation: HAMSTER, LIVER, MICROSOMES, DEXAMETHASONE, Method: PREINCUBATION
  mutagenic call: active; positive
Test System: AMES SALMONELLA TYPHIMURIUM, Strain/Indicator: TA1535, Metabolic Activation: HAMSTER, LIVER, MICROSOMES, ETHANOL, Method: PREINCUBATION
  mutagenic call: active; positive
Test System: AMES SALMONELLA TYPHIMURIUM, Strain/Indicator: TA1535, Metabolic Activation: HAMSTER, LIVER, MICROSOMES, ISOSAFROL, Method: PREINCUBATION
  mutagenic call: active; positive
Test System: AMES SALMONELLA TYPHIMURIUM, Strain/Indicator: TA1535, Metabolic Activation: HAMSTER, LIVER, MICROSOMES, PHENOBARBITAL, Method: PREINCUBATION
  mutagenic call: active; positive
Test System: AMES SALMONELLA TYPHIMURIUM, Strain/Indicator: TA1535, Metabolic Activation: HAMSTER, LIVER, S-9, 3-METHYLCHOLANTHRENE, Method: PREINCUBATION
  mutagenic call: active; positive
Test System: AMES SALMONELLA TYPHIMURIUM, Strain/Indicator: TA1535, Metabolic Activation: HAMSTER, LIVER, S-9, AROCLOR 1254, Method: PREINCUBATION
  mutagenic call: active; positive
Test System: AMES SALMONELLA TYPHIMURIUM, Strain/Indicator: TA1535, Metabolic Activation: HAMSTER, LIVER, S-9, DEXAMETHASONE, Method: PREINCUBATION
  mutagenic call: active; positive
Test System: AMES SALMONELLA TYPHIMURIUM, Strain/Indicator: TA1535, Metabolic Activation: HAMSTER, LIVER, S-9, ETHANOL, Method: PREINCUBATION
  mutagenic call: active; positive
Test System: AMES SALMONELLA TYPHIMURIUM, Strain/Indicator: TA1535, Metabolic Activation: HAMSTER, LIVER, S-9, ISOSAFROL, Method: PREINCUBATION
  mutagenic call: active; positive
Test System: AMES SALMONELLA TYPHIMURIUM, Strain/Indicator: TA1535, Metabolic Activation: HAMSTER, LIVER, S-9, PHENOBARBITAL, Method: PREINCUBATION
  mutagenic call: active; positive
Test System: AMES SALMONELLA TYPHIMURIUM, Strain/Indicator: TA1535, Metabolic Activation: NONE, Method: STANDARD PLATE
  mutagenic call: inactive; negative
Test System: AMES SALMONELLA TYPHIMURIUM, Strain/Indicator: TA1535, Metabolic Activation: RAT, LIVER, HEPATOCYTES, AROCLOR 1254, Method: STANDARD PLATE
  mutagenic call: active; positive
Test System: AMES SALMONELLA TYPHIMURIUM, Strain/Indicator: TA1535, Metabolic Activation: RAT, LIVER, HEPATOCYTES, Method: STANDARD PLATE
  mutagenic call: active; positive
Test System: AMES SALMONELLA TYPHIMURIUM, Strain/Indicator: TA1535, Metabolic Activation: RAT, LIVER, S-9, AROCLOR 1254, Method: STANDARD PLATE
  mutagenic call: active; positive
Test System: AMES SALMONELLA TYPHIMURIUM, Strain/Indicator: TA1535, Metabolic Activation: RAT, LIVER, S-9, Method: STANDARD PLATE
  mutagenic call: inactive; negative
Test System: AMES SALMONELLA TYPHIMURIUM, Strain/Indicator: TA1535, Metabolic Activation: RAT, TRACHEAL EPITHELIAL CELLS, AROCLOR 1254, Method: STANDARD PLATE
  mutagenic call: inactive; negative
Test System: AMES SALMONELLA TYPHIMURIUM, Strain/Indicator: TA1535, Metabolic Activation: RAT, TRACHEAL EPITHELIAL CELLS, Method: STANDARD PLATE
  mutagenic call: inactive; negative
Test System: AMES SALMONELLA TYPHIMURIUM, Strain/Indicator: TA7004, Metabolic Activation: HAMSTER LIVER S-9, AROCLOR 1254, Method: PREINCUBATION
  mutagenic call: active; positive
Test System: AMES SALMONELLA TYPHIMURIUM, Strain/Indicator: TA7004, Metabolic Activation: NONE, Method: PREINCUBATION
  mutagenic call: inactive; negative
Test System: AMES SALMONELLA TYPHIMURIUM, Strain/Indicator: TA7004, Metabolic Activation: RAT LIVER S-9, AROCLOR 1254, Method: PREINCUBATION
  mutagenic call: active; positive
Test System: AMES SALMONELLA TYPHIMURIUM, Strain/Indicator: YG7108-2A6-OR, Metabolic Activation: NONE, Method: PREINCUBATION
  mutagenic call: active; positive
Test System: AMES SALMONELLA TYPHIMURIUM, Strain/Indicator: YG7108-2A6, Metabolic Activation: NONE, Method: PREINCUBATION
  mutagenic call: active; positive
Test System: AMES SALMONELLA TYPHIMURIUM, Strain/Indicator: YG7108-PCW, Metabolic Activation: NONE, Method: PREINCUBATION
  mutagenic call: inactive; negative
Test System: AMES SALMONELLA TYPHIMURIUM, Strain/Indicator: YG7108, Metabolic Activation: RAT LIVER S-9, PHENOBARBITAL AND 5,6-BENZOFLAVONE, Method: PREINCUBATION
  mutagenic call: active; positive
Test System: CHINESE HAMSTER V-79, Strain/Indicator: V-79 (HPRT)/6-THIOGUANINE, Metabolic Activation: RAT, HEPATOCYTES
  mutagenic call: active; positive
Test System: CHINESE HAMSTER V-79, Strain/Indicator: V-79 (HPRT)/6-THIOGUANINE, Metabolic Activation: RAT, HEPATOMA, H4IIE CELLS
  mutagenic call: inactive; negative
Test System: CHINESE HAMSTER V-79, Strain/Indicator: V-79 (HPRT)/6-THIOGUANINE, Metabolic Activation: RAT, LIVER, S-9, AROCLOR 1254
  mutagenic call: active; positive
Test System: E. COLI, Strain/Indicator: NR3835, Metabolic Activation: HOST-MEDIATED, Method: IN VIVO-IN VITRO
  mutagenic call: active; positive
Test System: UDS RABBIT LUNG CLARA CELLS, Strain/Indicator: THY INCORP, Metabolic Activation: NONE, Method: LIQUID SCINTILLATION COUNTING
  mutagenic call: active; positive
Test System: UDS RABBIT LUNG MACROPHAGES, Strain/Indicator: THY INCORP, Metabolic Activation: NONE, Method: LIQUID SCINTILLATION COUNTING
  mutagenic call: inactive; negative
Test System: UDS RABBIT LUNG TYPE II CELLS, Strain/Indicator: THY INCORP, Metabolic Activation: NONE, Method: LIQUID SCINTILLATION COUNTING
  mutagenic call: active; positive
Test System: UDS RODENT HEPATOCYTES, Strain/Indicator: THY INCORP (NON-S-PHASE), Method: AUTORADIOGRAPHY
  mutagenic call: active; positive

## CC(C)(C)c1cc(-c2ccccc2)ccc1N=O
Test System: AMES SALMONELLA TYPHIMURIUM, Strain/Indicator: TA98, Metabolic Activation: NONE, Method: STANDARD PLATE
  mutagenic call: active; positive
Test System: AMES SALMONELLA TYPHIMURIUM, Strain/Indicator: TA98, Metabolic Activation: S-9, Method: STANDARD PLATE
  mutagenic call: active; positive
Test System: AMES SALMONELLA TYPHIMURIUM, Strain/Indicator: TA100, Metabolic Activation: NONE, Method: STANDARD PLATE
  mutagenic call: active; positive
Test System: AMES SALMONELLA TYPHIMURIUM, Strain/Indicator: TA100, Metabolic Activation: S-9, Method: STANDARD PLATE
  mutagenic call: active; positive

— PubChem BioAssay AID1259407 (Chemical Carcinogenesis Research Information System (CCRIS), 2018)
